Test results from ChEMBL document CHEMBL1131575, “[125I/127I/131I]Iodorhodamine: synthesis, cellular localization, and biodistribution in athymic mice bearing human tumor xenografts and comparison with [99mTc]hexakis(2-methoxyisobutylisonitrile)” (J Med Chem, 1998).

Tests used:
Mus musculus [1] = assay: Biodistribution in athymic mice bearing Human Tumor (KB) Xenografts 1 hour after injection in Muscle (M); assay type: ADME, organism-based; conditions: in vivo
Homo sapiens [2] = assay: Biodistribution in athymic mice bearing Human Tumor (KB) Xenografts 1 hour after injection in Tumor (T) cells; assay type: ADME, organism-based; conditions: in vivo
Mus musculus [3] = assay: Biodistribution in athymic mice bearing Human Tumor (LS174T) Xenografts 1 hour after injection in Blood (B); assay type: ADME, organism-based; conditions: in vivo
Mus musculus [4] = assay: Biodistribution in athymic mice bearing Human Tumor (LS174T) Xenografts 1 hour after injection in Heart (H); assay type: ADME, organism-based; conditions: in vivo
Mus musculus [5] = assay: Biodistribution in athymic mice bearing Human Tumor (LS174T) Xenografts 1 hour after injection in Lung (L); assay type: ADME, organism-based; conditions: in vivo
Mus musculus [6] = assay: Biodistribution in athymic mice bearing Human Tumor (LS174T) Xenografts 1 hour after injection in Muscle (M); assay type: ADME, organism-based; conditions: in vivo
Mus musculus [7] = assay: Biodistribution in athymic mice bearing Human Tumor (LS174T) Xenografts 1 hour after injection in Tumor (T) cells; assay type: ADME, organism-based; conditions: in vivo
Mus musculus [8] = assay: Biodistribution in athymic mice bearing Human Tumor (TE671) Xenografts 1 hour after injection in Blood (B); assay type: ADME, organism-based; conditions: in vivo
Mus musculus [9] = assay: Biodistribution in athymic mice bearing Human Tumor (TE671) Xenografts 1 hour after injection in Heart (H); assay type: ADME, organism-based; conditions: in vivo
Mus musculus [10] = assay: Biodistribution in athymic mice bearing Human Tumor (TE671) Xenografts 1 hour after injection in Lung (L); assay type: ADME, organism-based; conditions: in vivo
Mus musculus [11] = assay: Biodistribution in athymic mice bearing Human Tumor (TE671) Xenografts 1 hour after injection in Muscle (M); assay type: ADME, organism-based; conditions: in vivo
Homo sapiens [12] = assay: Biodistribution in athymic mice bearing Human Tumor (TE671) Xenografts 1 hour after injection in Tumor (T) cells; assay type: ADME, organism-based; conditions: in vivo
Mus musculus [13] = assay: Ratio of biodistributions in Athymic mice bearing human Tumor (TE671) xenografts in Tumor (T) and Muscle (M); assay type: ADME, organism-based; conditions: in vivo
[14] = (§1) Ratio of biodistributions in Athymic mice bearing human Tumor (KB) xenografts in Heart (H) and Blood (B); assay type: ADME, organism-based; conditions: mouse, read-out: Biodistribution ratio
Mus musculus [15] = assay: Ratio of biodistributions in Athymic mice bearing human Tumor (KB) xenografts in Heart (H) and Lung (L); assay type: ADME, organism-based; conditions: in vivo
Mus musculus [16] = assay: Ratio of biodistributions in Athymic mice bearing human Tumor (KB) xenografts in Tumor (T) and Muscle (M); assay type: ADME, organism-based; conditions: in vivo
[17] = (§2) Ratio of biodistributions in Athymic mice bearing human Tumor (KB) xenografts in Tumor (T) and blood (B); assay type: ADME, organism-based; conditions: mouse, read-out: Biodistribution ratio
[18] = (§3) Ratio of biodistributions in Athymic mice bearing human Tumor (LS174T) xenografts in Heart (H) and Blood (B); assay type: ADME, organism-based; conditions: mouse, read-out: Biodistribution ratio
Mus musculus [19] = assay: Ratio of biodistributions in Athymic mice bearing human Tumor (LS174T) xenografts in Heart (H) and Lung (L); assay type: ADME, organism-based; conditions: in vivo
Mus musculus [20] = assay: Ratio of biodistributions in Athymic mice bearing human Tumor (LS174T) xenografts in Tumor (T) and Muscle (M); assay type: ADME, organism-based; conditions: in vivo
[21] = (§4) Ratio of biodistributions in Athymic mice bearing human Tumor (TE671) xenografts in Heart (H) and Blood (B); assay type: ADME, organism-based; conditions: mouse, read-out: Biodistribution ratio
Mus musculus [22] = assay: Ratio of biodistributions in Athymic mice bearing human Tumor (TE671) xenografts in Heart (H) and Lung (L); assay type: ADME, organism-based; conditions: in vivo
Mus musculus [23] = assay: Biodistribution in athymic mice bearing Human Tumor (KB) Xenografts 1 hour after injection in Blood (B); assay type: ADME, organism-based; conditions: in vivo
Mus musculus [24] = assay: Biodistribution in athymic mice bearing Human Tumor (KB) Xenografts 1 hour after injection in Heart (H); assay type: ADME, organism-based; conditions: in vivo
Mus musculus [25] = assay: Biodistribution in athymic mice bearing Human Tumor (KB) Xenografts 1 hour after injection in Lung (L); assay type: ADME, organism-based; conditions: in vivo
[26] = (§5) Ratio of biodistributions in Athymic mice bearing human Tumor (LS174T) xenografts in Tumor (T) and blood (B); assay type: ADME, organism-based; conditions: mouse, read-out: Biodistribution ratio
[27] = (§6) Ratio of biodistributions in Athymic mice bearing human Tumor (TE671) xenografts in Tumor (T) and blood (B); assay type: ADME, organism-based; conditions: mouse, read-out: Biodistribution ratio
Mus musculus [28] = assay: as §6; assay type: ADME, organism-based, Blood/Heart
Mus musculus [29] = assay: as §1; assay type: ADME, organism-based
Mus musculus [30] = assay: as §2; assay type: ADME, organism-based
Mus musculus [31] = assay: as §3; assay type: ADME, organism-based
Mus musculus [32] = assay: as §5; assay type: ADME, organism-based, Blood/Heart
Mus musculus [33] = assay: as §4; assay type: ADME, organism-based

Compound	Dose/g (Mus musculus [1]) [%]	Dose/g (Homo sapiens [2]) [%]	Dose/g (Mus musculus [3]) [%]	Dose/g (Mus musculus [4]) [%]	Dose/g (Mus musculus [5]) [%]	Dose/g (Mus musculus [6]) [%]	Dose/g (Mus musculus [7]) [%]	Dose/g (Mus musculus [8]) [%]	Dose/g (Mus musculus [9]) [%]	Dose/g (Mus musculus [10]) [%]	Dose/g (Mus musculus [11]) [%]	Dose/g (Homo sapiens [12]) [%]	Biodistribution ratio (Mus musculus [13])	Biodistribution ratio (Mus musculus [15])	Biodistribution ratio (Mus musculus [16])	Biodistribution ratio (Mus musculus [19])	Biodistribution ratio (Mus musculus [20])	Biodistribution ratio (Mus musculus [22])	Dose/g (Mus musculus [23]) [%]	Dose/g (Mus musculus [24]) [%]	other results
COC(=O)c1ccccc1-c1c2ccc(=N)cc-2oc2cc(N)ccc12.[125IH]	1.44	1.67	1.74	0.6	0.91	0.36	0.59	1.74	0.6	0.91	0.36	1.1	3.1	0.8	1.2	0.7	1.6	0.7	4.6	2.56	Kp [14]: 0.6; Kp [17]: 0.36; Kp [18]: 0.5; Kp [21]: 0.5; Dose/g (Mus musculus [25]): 3.23%; Kp [26]: 0.34; Kp [27]: 0.63
Hexakis-(2-methoxyisobutylisonitrile)Technetium (99mTc-MIBI)	2.74	0.65	0.13	6	0.5	1.22	0.52	0.13	6	0.5	1.22	1.1	0.9	4.5	0.24	12	0.43	12	0.17	8.13	Biodistribution ratio (Mus musculus [28]): 8.5; Biodistribution ratio (Mus musculus [29]): 48; Biodistribution ratio (Mus musculus [30]): 3.8; Biodistribution ratio (Mus musculus [31]): 46; Biodistribution ratio (Mus musculus [32]): 4; Biodistribution ratio (Mus musculus [33]): 46; Dose/g (Mus musculus [25]): 1.82%
